# Data reported in patent EP0469084B1, “HEPATOSPECIFIC INSULIN ANALOGUES” (MOUNT SINAI SCHOOL OF MEDICINE OF THE CITY UNIVERSITY OF …, priority 1989, dated 1995).
# Legend:
# [1] = from U.S. Patent 4,992,417 and PCT/US88/02289; cited from earlier work
# FAO cells = assay: Inhibition of gluconeogenesis assay (glucose secretion by confluent hepatoma cell monolayers); assay type: cell-based; details: for potency in inhibiting gluconeogenesis relative to the natural hormone: ratio of concentration of insulin to analogue producing half-maximal inhibition of glucose production, FAO hepatoma cells
# Source text: (§1) Although insulin analogues, in general, maintain some residual insulin activity, the potency of such analogues is usually only a fraction of that of natural insulins. The potency of human, bovine and porcine insulins in USP standards is about 25-26 IU (international units) per mg protein. Standard assay for measuring insulin potency include inter alia (1) insulin radioreceptorassays, in which the relative potency of an insulin is defined as the ratio of insulin to insulin analogue required to displace 50% of ¹²⁵I-insulin specifically bound to insulin receptors present on cell membranes, e.g. a rat liver plasma membrane fraction, isolated rat adipocytes, or isolated rat hepatocytes; (2) lipogenesis assays, performed e.g. with rat adipocytes, in which relative insulin potency is defined as the ratio of insulin to insulin analogue required to achieve 50% of the maximum conversion of [3-³H] glucose into organic-extractable material (i.e. lipids); (3) glucose oxidation assays in isolated fat cells in which the relative potency of the insulin analogue is defined as the ratio of insulin to insulin analogue to achieve 50% of the maximum conversion of glucose-1-[¹⁴C] into [¹⁴CO₂]; (4) insulin radioimmunoassays which can determine the immunogenicity of insulin analogues by measuring the effectiveness by which insulin or an insulin analogue competes with ¹²⁵I-insulin in binding to specific anti-insulin antibodies; (5) inhibition of gluconeogenesis performed on confluent monolayers of a well differentiated hepatoma cell line (FAO) in which inhibition of glucose secretion into the medium is determined as a function of the concentration of insulin or insulin analogue.
# This assay was carried out on confluent monolayers of a well differentiated hepatoma cell line (Lauris et al. Endocrinology 118:2519-2524 (1986)) in which glucose production was monitored with a commercial glucose oxidase kit (Sigma kit no. 510-A, Sigma Technical Bulletin 510, 1983). Inhibition of glucose secretion into the medium was determined as a function of the concentration of insulin or insulin analogue, and the relative potency of the analogue was defined as the ratio of the concentration of insulin to analogue required to produce half-maximal inhibition of glucose production. The cell culture and glucose production was carried out as described by Lauris et al., supra.
# The potency of the synthetic insulin in inhibiting gluconeogenesis is calculated to be about 90% relative to the natural hormone.
# insulin receptors = assay: Insulin receptor binding assay (inhibition of specific 125I-insulin binding, rat liver plasma membrane fraction); details: concentration ratio of unlabelled insulin to analogue required to inhibit 50% of specific 125I-insulin binding; rat liver plasma membranes, 45 min at 24°C, pH 7.4
# Description: Although insulin analogues, in general, maintain some residual insulin activity, the potency of such analogues is usually only a fraction of that of natural insulins. The potency of human, bovine and porcine insulins in USP standards is about 25-26 IU (international units) per mg protein. […]
# Briefly, triplicate 0.2ml incubations contained ¹²⁵I-insulin, 3 x 10⁻¹⁰M, unlabelled insulin or [Trp¹⁴-A] insulin prepared as in Example 1, and plasma membranes (20-40 »g of protein) in 0.1 M sodium phosphate, pH 7.4, containing 0.6% fraction V bovine serum albumin. […] The filters were washed twice with the ice cold buffer, dried, and then radioactivity was counted in a scintillation counter using Filtron-X®. […]
# rat adipocytes = assay: Lipogenesis assay (conversion of [3-3H] glucose into lipids in isolated adipocytes); assay type: cell-based; details: for potency in lipogenesis compared to the natural hormone: concentration ratio of bovine insulin to analogue producing 50% of maximum stimulation of lipogenesis
# Source text: as §1
# In this Example the materials used and the analytical procedures followed are those found in Kitagawa et al., Biochemistry, 23: 1405-1413 (1984). ¹²⁵I-insulin for receptor binding studies and [3-³H] glucose for lipogenesis were obtained from DuPont NEN Research Products. Cellulose acetate membrane filters, 0.2 »m pore size, were products of Sartorius. Glass-fiber filters, Type GFC, were from Whatman. Collagenase, Type II crude, was obtained from Worthington. […]
# These assays measured the ability of the insulin analogue as compared to bovine insulin to convert [3-³H] glucose into lipids.
# Adipocytes were prepared by incubating epididymal and perirenal fat pads obtained from male rats weighing 200-300 g with 1.0 mg/ml collagenase for 60 min at 37°C, followed by filtration through gauze and then through fine-mesh silk. […] Samples were extracted with 10 ml of Soluscint-0® for 30 min at room temperature before counting the radioactivity in a scintillation counter. […] Zero and 100% stimulation of lipogenesis were defined as radioactivity observed in the absence and presence, respectively, of 9.1 x 10⁻¹⁰M insulin (5.5 ng/ml). […]
# [2] = from W. Danho et al., Chemical Abstracts 94: 47733x; cited from earlier work
# [3] = compared with insulin, FAO cells
substance,measurement,setting,value
[10-Aspartic Acid-B] human insulin,potency relative to natural insulins,[1],4 to 5 times
[Trp¹⁴-A] insulin,concentration of agonist producing half-maximal inhibition of gluconeogenesis,FAO cells; [3],approximately the same concentration of agonist
same,maximum inhibition of gluconeogenesis,FAO cells; [3],same maximum inhibition of gluconeogenesis
same,potency in inhibiting gluconeogenesis relative to the natural hormone,FAO cells,90%
same,potency in inhibiting gluconeogenesis relative to the natural hormone,FAO cells; listed as [Trp ¹⁴-A] insulin,about 90%
same,"potency of that of the natural hormone (relative potency, receptor binding)",insulin receptors,about 60%
same,concentration of agonist producing half-maximal stimulation of lipogenesis,rat adipocytes; compared with bovine insulin,about twice the concentration of agonist
same,maximum stimulation of lipogenesis,rat adipocytes; compared with bovine insulin,same maximum stimulation of lipogenesis
same,potency in lipogenesis compared to the natural hormone,rat adipocytes,about 60%
same,potency in lipogenesis compared to the natural hormone,rat adipocytes; listed as synthetic insulin,approximately 60%
porcine A14-phenylalanine insulin,biological activity compared with native insulin,[2],virtually the same biological activity as native insulin
